The test system of assay [1] is A375 (BRAF mutation). Description: MTT cell viability assay, A375 melanoma. The class given is cell-based, human. As to conditions: Homo sapiens, A-375, 24 h, read-out: IC50 on cell viability, A375 (BRAF mutation). The protocol: (§1) Normal or cancer cells (2×10^3 to 1×10^4 cells/well) were seeded in 96-well plate for overnight and treated with different compounds for 24 h to 72 h. Cells growth were determined by MTT-based colorimetric assays according to. Viability of the test cells treated with vehicle (0.5% DMSO) only was defined as 100% viable. Survival of cells after treatment with DETDs was calculated using the following formula: viable cell number (%)=OD570 (treated cell culture)/OD570 (vehicle control)×100.
(§2) Several genes are involved in melanoma development and pathology; specifically, mutation in V-raf murine sarcoma viral oncogene homolog B1 (B-RAF) occurs approximately 50-60% and in neuroblastoma RAS viral oncogene homolog (N-RAS) occurs about 30% of malignant melanomas. A spectrum of wild-type or mutated melanoma cell lines including B16-F10, MeWo, A375, A2058, HTB-68, and melanocyte were used to study anti-melanoma cell proliferation activity of parental phytocompound DET and newly synthesized DETDs.
To investigate whether or not DETD-35 show synergism with PLX4032 against A375 melanoma cells, we performed anti-proliferation assay using MTT reagent to obtain IC50 of each compound. […] The synergistic effect was quantified by combination index (CI) analysis as stated above.
For orientation: Tetrazolium assays rely on reduction of a dye to a coloured formazan, in cell work by metabolically active cells.

Assay [2] deals with TS/A (ER+, Her2−) murine mammary cancer cells. Description: MTT cell viability assay, TS/A cells. The class given is cell-based. The conditions noted are these: Mus musculus, 24 h, read-out: IC50 on cell viability, TS/A (ER+, Her2−). The procedure: as §1
(§3) Sixty DETDs were derived from parental compound […] and tested for anti-breast cancer cell activity.

Assay [3] relates to MeWo (No NRAS or BRAF mutation). Description: MTT cell viability assay, MeWo melanoma. The conditions noted are these: Homo sapiens, MeWo, 24 h. The class given is cell-based, human. The procedure:
as §1, §2

Assay [4] concerns MCF-7 (ER+, Her2−) human breast cancer cells. Description: MTT cell viability assay, MCF-7 cells. The class given is cell-based. As to conditions: MCF7, 24 h, read-out: IC50 on cell viability, MCF-7 (ER+, Her2−). The protocol: as §1, §3
Assay [5] concerns MDA-MB-231 (ER−, PR−, Her2−) human breast cancer cells. Description: MTT cell viability assay, MDA-MB-231 cells. It counts as cell-based. The conditions noted are these: Homo sapiens, MDA-MB-231, 24 h, read-out: IC50 on cell viability, MDA-MB-231 (ER−, PR−, Her2−). The protocol: as §1, §3
Assay [6] has as its system A2058 (BRAF mutation). Description: MTT cell viability assay, A2058 melanoma. The class given is cell-based, human. As to conditions: Homo sapiens, A2058, 24 h. The protocol:
as §1, §2

In assay [7] the test system is RAW264.7 (normal macrophage). Description: MTT cell viability assay, RAW264.7 macrophages. It counts as cell-based, mouse. The conditions noted are these: Mus musculus, RAW264.7, 24 h. The procedure: as §1
(§4) Marcophages (2×10^5 cells/well in 96-well plate) were treated with compounds for 1 h, then incubated further for 24 h with or without the presence of […] LPS in the cultural medium. Nitrite levels in cell culture medium were determined by the Griess reaction method. In parallel to the Griess assays, macrophage cell viabilities were determined using the MTT based colorimetric assay.

The subject of assay [8] is M10 normal mammary epithelial cells. Description: MTT cell viability assay, M10 normal cells. It counts as cell-based, human. The conditions noted are these: Homo sapiens, Epithelial cell, 24 h. The procedure:
as §1, §3

Assay [9] concerns B16-F10 (NRAS mutation). Description: MTT cell viability assay, B16-F10 melanoma. It counts as cell-based. The conditions noted are these: Mus musculus, B16-F10, 24 h, read-out: IC50 on cell viability, B16-F10 (NRAS mutation). The protocol:
as §1, §2

The subject of assay [10] is HTB-68 (NRAS mutation). Description: MTT cell viability assay, HTB-68 melanoma. The class given is cell-based, human. As to conditions: Homo sapiens, 24 h. The protocol:
as §1, §2

Assay [11] relates to LPS-induced nitric oxide (NO) production in RAW 264.7 cells. Description: Nitric oxide production in LPS-stimulated macrophages (Griess). It counts as cell-based, mouse. The conditions noted are these: Mus musculus; LPS-stimulated RAW264.7, nitrite 24 h after LPS. The procedure:
as §4
LPS from the outer membrane of Gram-negative bacteria can induce mRNA or protein levels of inducible nitric oxide synthase (iNOS), which catalyzes oxidative deamination of L-arginine to produce nitric oxide (NO). Once NO is predominantly produced, it interacts with superoxide anion and generates highly reactive oxidants resulting in cellular inflammation, DNA, protein and tissue damages, carcinogenesis, and antiapoptosis. We used in vitro LPS stimulated inflammation in RAW264.7 cell system to evaluate the effect of DET and its derivatives DETDs on NO production by determination of nitrite level (equivalent to NO level) in culture medium 24 h after LPS treatment.

The test system of assay [12] is Melanocyte (Normal cells). Description: MTT cell viability assay, normal melanocytes. It counts as cell-based, human. As to conditions: Homo sapiens, Melanocyte, 24 h. The procedure: as §1, §2

Each structure is given as a SMILES string. Read-outs that look alike come from different tables or passages of the source. Bounds are passed on as bounds.

`C=C1C(=O)OC2CC3=C[C@@H](C/C(C)=C/C(OC(=O)/C=C/c4ccc(C)cc4)[C@H]12)OC3=O` (stereo partly drawn) [DETD-27]: the IC50 in [1] (24 h, MTT) is over 10 µM; in assay [2], 2.4 µM; in assay [3], over 10 µM; in assay [4], 3.7 µM; in assay [5], 3.6 µM; in assay [6], over 10 µM. The IC50 in assay [7] was over 10 µM; in assay [8] it was over 7.5 µM; in assay [9] (24 h), 4.8 µM; in [10], over 10 µM; in assay [11] it was 1.9 µM; in assay [12] it was over 10 µM.
`C=C1C(=O)OC2CC3=C[C@@H](C/C(C)=C/C(OC(=O)/C=C/c4ccco4)[C@H]12)OC3=O` (stereo partly drawn) [DETD-29]: the IC50 in assay [1] (24 h, MTT) is over 10 µM; in assay [2], 2.2 µM; in assay [3], over 10 µM; in assay [4] it was 4.1 µM; in [5], 4.9 µM; in assay [6] it was over 10 µM. Further, the IC50 in [7] is over 10 µM; in assay [8], over 7.5 µM; in [9] (24 h) it was 6.7 µM; in assay [10], over 10 µM; in [11], 1.6 µM; in assay [12], over 10 µM.
As for `C=C1C(=O)OC2CC3=C[C@@H](C/C(C)=C/C(OC(=O)c4ccccc4)[C@H]12)OC3=O` (stereo partly drawn) [DETD-31], the IC50 in assay [1] (24 h, MTT) is 4.3 µM; in assay [2], 2 µM; in [3] it was over 10 µM; in assay [4] it was 5.9 µM; in assay [5], 4.5 µM; in [6], over 10 µM. The IC50 in [7] was over 10 µM; in [8], over 7.5 µM; in assay [9] (24 h), 2.9 µM; in assay [10] it was over 10 µM; in assay [11], 3.2 µM; in [12], over 10 µM.
As to `C=C1C(=O)OC2CC3=C[C@@H](C/C(C)=C/C(OC(=O)C4CC4)[C@H]12)OC3=O` (stereo partly drawn) [DETD-36], the IC50 in assay [1] (24 h, MTT) is 9.2 µM; in assay [2], 2.4 µM; in assay [3], over 10 µM; in assay [4], 7.1 µM; in [5], 8.7 µM; in assay [6], over 10 µM. The IC50 was over 10 µM in assay [7]; over 7.5 µM in assay [8]; 9.4 µM in assay [9] (24 h); over 10 µM in [10]; 1.8 µM in assay [11]; over 10 µM in assay [12].
For the compound `C=C1C(=O)OC2CC3=C[C@@H](C/C(C)=C/C(OC(=O)C4CCCC4)[C@H]12)OC3=O` (stereo partly drawn) [DETD-37], the IC50 in [1] (24 h, MTT) is over 10 µM; in assay [2], 3 µM; in assay [3], over 10 µM; in assay [4], 6.2 µM; in assay [5], 6.7 µM; in assay [6] it was over 10 µM. For the same compound, the IC50 in [7] was over 10 µM; in [8], over 7.5 µM; in [9] (24 h) it was 3.8 µM; in assay [10], over 10 µM; in assay [11] it was 2 µM; in assay [12], over 10 µM.
Turning to `C=C1C(=O)OC2CC3=C[C@@H](C/C(C)=C/C(OC(=O)c4cc5ccccc5o4)[C@H]12)OC3=O` (stereo partly drawn) [DETD-40], the IC50 in [1] (24 h, MTT) is over 10 µM; in assay [2], 3.1 µM; in assay [3], over 10 µM; in assay [4] it was 6.1 µM; in [5], 4.9 µM; in assay [6], over 10 µM. The IC50 in assay [7] was over 10 µM; in [8], over 7.5 µM; in assay [9] (24 h), 4.3 µM; in [10], over 10 µM; in assay [11] it was 4.5 µM; in assay [12], over 10 µM.
Consider `C=C1C(=O)OC2CC3=C[C@@H](C/C(C)=C/C(OC(=O)c4cc5ccccc5s4)[C@H]12)OC3=O` (stereo partly drawn) [DETD-41], for which the IC50 in [1] (24 h, MTT) is over 10 µM; in assay [2], 2.8 µM; in assay [3], over 10 µM; in assay [4] it was 5.3 µM; in assay [5], 5 µM; in [6], over 10 µM. The IC50 in [7] was over 10 µM; in assay [8], over 7.5 µM; in [9] (24 h), 5.5 µM; in assay [10], over 10 µM; in assay [11] it was 3.5 µM; in assay [12], over 10 µM.
Take `C=C1C(=O)OC2CC3=C[C@@H](C/C(C)=C/C(OC(=O)/C=C/c4cccs4)[C@H]12)OC3=O` (stereo partly drawn) [DETD-42]: the IC50 is over 10 µM in [1]; 2.7 µM in assay [2]; over 10 µM in [3]; 4.5 µM in assay [4]; 6 µM in assay [5]; over 10 µM in assay [6]. In addition, the IC50 in [7] was over 10 µM; in assay [8], over 7.5 µM; in assay [9], 5.5 µM; in [10], over 10 µM; in assay [11], 2.9 µM; in assay [12], over 10 µM.
Regarding `C=C1C(=O)OC2CC3=C[C@@H](C/C(C)=C/C(OC(=O)Cc4ccccc4)[C@H]12)OC3=O` (stereo partly drawn) [DETD-43], the IC50 in assay [1] was 3.6 µM; in [2] it was 2.4 µM; in assay [3], over 10 µM; in [4] it was over 7.5 µM; in assay [5] it was 6.9 µM; in [6] it was 8.7 µM. The IC50 in assay [7] was over 10 µM; in [8], over 7.5 µM; in assay [9] it was 7.4 µM; in assay [10], 8.2 µM; in assay [11], 3.5 µM; in [12], over 10 µM.
For the compound `C=C1C(=O)OC2CC3=C[C@@H](C/C(C)=C/C(OC(=O)Cc4ccc(OC)cc4)[C@H]12)OC3=O` (stereo partly drawn) [DETD-44], the IC50 is 3.5 µM in assay [1] (24 h, MTT); 2.2 µM in [2]; over 10 µM in assay [3]; over 7.5 µM in [4]; 7 µM in assay [5]; 8.5 µM in [6]. Also, the IC50 in assay [7] is over 10 µM; in assay [8], over 7.5 µM; in [9] (24 h), 7.3 µM; in assay [10], 7.6 µM; in [11] it was 3.4 µM; in [12], over 10 µM.
As to `C=C1C(=O)OC2CC3=C[C@@H](C/C(C)=C/C(OC(=O)Cc4ccc5cc(OC)ccc5c4)[C@H]12)OC3=O` (stereo partly drawn) [DETD-46], the IC50 in [1] (24 h, MTT) was 2.6 µM; in assay [2] it was 3.8 µM; in [3], 6.3 µM; in assay [4], over 7.5 µM; in [5] it was 7.3 µM; in [6], 5 µM. Moreover, the IC50 in assay [7] was over 10 µM; in assay [8], over 7.5 µM; in assay [9] (24 h), 5.4 µM; in assay [10], 4.5 µM; in assay [11], 3.1 µM; in [12], over 10 µM.
Take `C=C1C(=O)OC2CC3=C[C@@H](C/C(C)=C/C(OC(=O)/C=C/c4cccc(OC(F)(F)F)c4)[C@H]12)OC3=O` (stereo partly drawn) [DETD-47]: the IC50 in assay [1] (24 h, MTT) is 8.3 µM; in assay [2] it was over 7.5 µM; in [3], over 10 µM; in assay [4], over 7.5 µM; in assay [5], over 15 µM; in assay [6] it was over 10 µM. Also, the IC50 in [7] is over 10 µM; in [8], over 7.5 µM; in assay [9] (24 h), over 10 µM; in assay [10] it was over 10 µM; in [11] it was over 10 µM; in assay [12] it was over 10 µM.

For the origin of these results see patent US10238631B2, “Sesquiterpene derivatives and their use in inflammation or cancer treatment” (Academia Sinica, priority 2014, dated 2019).
